Test results from the supplement of paper PMC10307832.

Key:
Assay in all cases: relative viability (nuclei count vs DMSO), 5 days (fraction); higher = more cells survive
[1] = compound: CCN1CCC(CC1)N2C=C(N=N2)CNC3=CC4=C(C(=CN=C4C(=C3)Cl)C#N)NC5=CC(=C(C=C5)F)Cl [KIN001-266] + CCNC(=O)c1noc(-c2cc(C(C)C)c(O)cc2O)c1-c1ccc(CN2CCOCC2)cc1 [Luminespib] (partner 0.01 µM)
Summary of the method: (§1)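 Values are medians from duplicate plates. Each reflects relative viability, defined as the nuclei count of treated wells over that of vehicle wells. Lung cancer cell lines in 1536-well plates were pin-tool dosed one day after seeding with one drug alone or with a fixed anchor-drug dose plus five library-drug doses (not always all listed) in √10 steps, then fixed, stained and imaged at 4× after 5 days.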

[2] = compound: CCN1CCC(CC1)N2C=C(N=N2)CNC3=CC4=C(C(=CN=C4C(=C3)Cl)C#N)NC5=CC(=C(C=C5)F)Cl [KIN001-266] + CC(=O)c1c(C)c2cnc(Nc3ccc(N4CCNCC4)cn3)nc2n(C2CCCC2)c1=O [Palbociclib] (partner 0.5 µM)
Summary of the method: as §1

[3] = compound: CCN1CCC(CC1)N2C=C(N=N2)CNC3=CC4=C(C(=CN=C4C(=C3)Cl)C#N)NC5=CC(=C(C=C5)F)Cl [KIN001-266] + CS(=O)(=O)N1CCN(Cc2cc3nc(-c4cccc5[nH]ncc45)nc(N4CCOCC4)c3s2)CC1 [Pictilisib] (partner 1 µM)
Summary of the method: as §1

[4] = compound: CCN1CCC(CC1)N2C=C(N=N2)CNC3=CC4=C(C(=CN=C4C(=C3)Cl)C#N)NC5=CC(=C(C=C5)F)Cl [KIN001-266] + COc1cccc2cc(-c3nc([C@H]4CC[C@H](C(=O)O)CC4)n4ncnc(N)c34)[nH]c12 [OSI-027] (partner 0.5 µM)
Summary of the method: as §1

Row | Cell Line | relative viability ([1]; first compound 0.08 µM) | relative viability ([1]; first compound 0.253 µM) | relative viability ([1]; first compound 0.8 µM) | relative viability ([1]; first compound 2.53 µM) | relative viability ([1]; first compound 8 µM) | relative viability ([2]; first compound 0.08 µM) | relative viability ([2]; first compound 0.253 µM) | relative viability ([2]; first compound 0.8 µM) | relative viability ([2]; first compound 2.53 µM) | relative viability ([2]; first compound 8 µM) | relative viability ([3]; first compound 0.08 µM) | relative viability ([3]; first compound 0.253 µM) | relative viability ([3]; first compound 0.8 µM) | relative viability ([3]; first compound 2.53 µM) | relative viability ([3]; first compound 8 µM) | relative viability ([4]; first compound 0.08 µM) | relative viability ([4]; first compound 0.253 µM) | relative viability ([4]; first compound 0.8 µM) | relative viability ([4]; first compound 2.53 µM) | relative viability ([4]; first compound 8 µM)
1 | NCI-H1915 | 0.827 | 0.684 | 0.791 | 0.79 | 0.783 | 0.546 | 0.599 | 0.514 | 0.543 | 0.389 | 1.03 | 0.949 | 0.947 | 1.05 | 0.781 | 0.703 | 0.635 | 0.629 | 0.661 | 0.49
2 | NCI-H2009 | 1.04 | 0.969 | 1.05 | 0.983 | 0.881 | 0.203 | 0.257 | 0.253 | 0.208 | 0.203 | 0.852 | 0.935 | 1.02 | 0.669 | 0.48 | 0.711 | 0.686 | 0.744 | 0.493 | 0.41
3 | BEN | 0.559 | 0.651 | 0.861 | 0.288 | 0.458 | 0.439 | 0.495 | 0.511 | 0.467 | 0.507 | 0.632 | 0.615 | 0.589 | 0.54 | 0.632 | 0.296 | 0.335 | 0.305 | 0.274 | 0.283
4 | PC-14 | 0.167 | 0.117 | 0.171 | 0.225 | 0.152 | 0.55 | 0.518 | 0.594 | 0.509 | 0.0895 | 0.702 | 0.571 | 0.772 | 0.565 | 0.0965 | 0.836 | 0.981 | – | 0.67 | 0.152
5 | SK-MES-1 | 0.783 | 0.779 | 1.06 | 0.739 | 0.427 | 0.331 | 0.352 | 0.28 | 0.336 | 0.316 | 0.304 | 0.351 | 0.37 | 0.408 | 0.316 | 0.694 | 0.676 | 0.575 | 0.573 | 0.474
6 | NCI-H727 | 0.359 | 0.316 | 0.346 | 0.246 | 0.514 | 0.683 | 0.617 | 0.642 | 0.671 | 0.729 | 0.389 | 0.351 | 0.327 | 0.264 | 0.304 | 0.646 | 0.573 | 0.593 | 0.541 | 0.527
7 | NCI-H1355 | 0.741 | 0.642 | 0.811 | 0.691 | 0.722 | 0.41 | 0.381 | 0.438 | 0.415 | 0.387 | 0.481 | 0.408 | 0.399 | 0.303 | 0.378 | 0.476 | 0.426 | 0.4 | 0.373 | 0.397
8 | NCI-H1975 | 0.26 | 0.187 | 0.276 | 0.221 | 0.215 | 0.709 | 0.553 | 0.551 | 0.609 | 0.505 | 0.316 | 0.308 | 0.304 | 0.294 | 0.326 | 0.692 | 0.776 | 0.769 | 0.691 | 0.555
